Data from the NIST ThermoML archive (doi:10.1021/je200757a).

Experiments:
[1] = for viscosity / mass density: 101 kPa, Liquid; for viscosity: Capillary tube (Ostwald / Ubbelohde) method; for mass density: Vibrating tube method
[2] = refractive index (Na D-line) (dimensionless); settings: 101.33 kPa, Liquid
[3] = xn = mol fraction of the nth substance listed; settings: x1 = 1; for viscosity / mass density: 101 kPa, Liquid; for viscosity: Capillary tube (Ostwald / Ubbelohde) method; for mass density: Vibrating tube method
[4] = refractive index (Na D-line) (dimensionless); xn = mol fraction of the nth substance listed; settings: 101 kPa, Liquid, x1 = 1

CCCCCCCCCCCC [dodecane]
Settings	mass density, [1] [kg/m3]	refractive index, [2]	surface tension liquid-gas, [1] [mN/m]	viscosity, [1] [mPa·s]
293.15 K	748.6	1.4219	24.07	1.507
298.15 K	745	–	–	1.377
303.15 K	741.4	1.4168	23.67	1.266
313.15 K	734.1	–	–	1.084

CCCCCCCCCCCC [dodecane] + C1C[C@@H]2[C@H]3CC[C@H](C3)[C@@H]2C1
Settings	mass density, [3] [kg/m3]	refractive index, [4]	surface tension liquid-gas, [3] [mN/m]	viscosity, [3] [mPa·s]
293.15 K	748.6	1.4219	24.07	1.507
298.15 K	745	–	–	1.377
303.15 K	741.4	1.4168	23.67	1.266
313.15 K	734.1	–	–	1.084

C1C[C@@H]2[C@H]3CC[C@H](C3)[C@@H]2C1 [exo-tetrahydrodicyclopentadiene]
[1], Capillary rise
Settings	surface tension liquid-gas [mN/m]
293.15 K	31.86
303.15 K	31.09

Settings	mass density, 293.15 K [kg/m3]	mass density, 298.15 K [kg/m3]	mass density, 303.15 K [kg/m3]	mass density, 313.15 K [kg/m3]	refractive index, 293.15 K	refractive index, 303.15 K	viscosity, 293.15 K [mPa·s]	viscosity, 298.15 K [mPa·s]	viscosity, 303.15 K [mPa·s]	viscosity, 313.15 K [mPa·s]
[1]	935.3	931.4	927.5	919.6	–	–	3.077	2.784	2.525	2.112
[2]	–	–	–	–	1.4877	1.4832	–	–	–	–

CCCCCCCCC [nonane]
[1], Capillary rise
Settings	surface tension liquid-gas [mN/m]
293.15 K	22.2
303.15 K	21.41

Settings	mass density, 293.15 K [kg/m3]	mass density, 298.15 K [kg/m3]	mass density, 303.15 K [kg/m3]	mass density, 313.15 K [kg/m3]	refractive index, 293.15 K	refractive index, 303.15 K	viscosity, 293.15 K [mPa·s]	viscosity, 298.15 K [mPa·s]	viscosity, 303.15 K [mPa·s]	viscosity, 313.15 K [mPa·s]
[1]	717.8	713.9	710	702.1	–	–	0.733	0.687	0.647	0.579
[2]	–	–	–	–	1.4048	1.4001	–	–	–	–

CCCCCCCCC [nonane] + C1C[C@@H]2[C@H]3CC[C@H](C3)[C@@H]2C1
[3], Capillary rise
Settings	surface tension liquid-gas [mN/m]
293.15 K	22.2
303.15 K	21.41

Settings	mass density, 293.15 K [kg/m3]	mass density, 298.15 K [kg/m3]	mass density, 303.15 K [kg/m3]	mass density, 313.15 K [kg/m3]	refractive index, 293.15 K	refractive index, 303.15 K	viscosity, 293.15 K [mPa·s]	viscosity, 298.15 K [mPa·s]	viscosity, 303.15 K [mPa·s]	viscosity, 313.15 K [mPa·s]
[3]	717.8	713.9	710	702.1	–	–	0.733	0.687	0.647	0.579
[4]	–	–	–	–	1.4048	1.4001	–	–	–	–

CCCCCCCCCCCCC [tridecane]
Settings	mass density, [1] [kg/m3]	refractive index, [2]	surface tension liquid-gas, [1] [mN/m]	viscosity, [1] [mPa·s]
293.15 K	756.5	1.4253	24.79	1.894
298.15 K	752.9	–	–	1.726
303.15 K	749.3	1.4213	24.08	1.577
313.15 K	742.2	–	–	1.325

CCCCCCCCCCCCC [tridecane] + C1C[C@@H]2[C@H]3CC[C@H](C3)[C@@H]2C1
Settings	mass density, [3] [kg/m3]	refractive index, [4]	surface tension liquid-gas, [3] [mN/m]	viscosity, [3] [mPa·s]
293.15 K	756.5	1.4253	24.79	1.894
298.15 K	752.9	–	–	1.726
303.15 K	749.3	1.4213	24.08	1.577
313.15 K	742.2	–	–	1.325
